Common to all, as to format: cell-based
The subject of test [1] is M-NFS-60 mouse myeloid leukemia lymphocytes. Nature of the test: CSF-1R-related cell proliferation experiment (Cell Titer Glo). To be noted: 72 h, M-NFS-60 cells, 3 days, CTG. Here is the method:
Functional effects of compounds on cell proliferation were evaluated by using Cell Titer Glo (CTG) study in the present invention. M-NFS-60 mouse myeloid leukemia lymphocytes (cat. No. CCBJ078) from National Institutes For Food and Drug Control were cultured in the incubator under conditions of RPMI 1640 (Gibco, cat. No. 11875-119), 10% fetal bovine serum (Gibco, 10099-141), human 10 ng/mL M-CSF macrophage colony-stimulating factor (R&D, cat. No. MVN0915101), 37° C. and 5% CO2. Since ATP is an index for viable cell metabolism, CTG (Promega, #G7573) reagent is a homogeneous detection method for detecting the number of viable cells in the culture by quantifying ATP. Therefore, compound-mediated inhibition for cell proliferation/survival was evaluated by quantifying ATP in cells, and the specific experimental process was as follows: • 1. The cells were plated into a tissue-culture-medium-treated 96-well plate (Costar #3904) with 5,000 cells/well/80 μL fresh culture medium: • 2. 24 hours later, 10 μL culture medium containing testing compound with 10-fold of final concentration was added to each well; • 3. 10 μL of culture medium containing M-CSF with 10-fold of the final concentration was then added to each well: • 4. dosage effect was evaluated by testing the 3-fold serial dilutions of the compound; • 5. after the cells were incubated for 3 days at 37° C. and 5% CO2, the inhibition on cell survival was quantified after 50 μL of CTG was added and the luminescence assay was performed; • 6. the compound concentration leading to half maximal inhibitory (IC50) and the compound concentration leading to absolute half maximal inhibitory (Absolute IC50) were measured by a plate reader (M1000, Tecan) and a four-parameter curve fit in Graphpad Prism 7. D. CSF-1R-Related Cell Proliferation Experiment

The subject of test [2] is NCI-H1703 human non-small cell lung squamous carcinoma cells. Description: PDGFRA-related cell proliferation experiment (Cell Titer Glo). The conditions noted are these: 72 h, 3 days, CTG, read-out: Cytological experiment PDGFRA IC50. Here is the method: (§1) Functional effects of compounds on the proliferation of several cell lines were evaluated by Cell Titer Glo (CTG) studies in the present invention, and effects of the compounds on the proliferation of different cells were evaluated to determine the selectivity degree of the compounds. In the study, M-07e human cytomegalic leukemia cells (cat. No. CBP60791) from Nanjing Kebai Biotechnology Co., Ltd. were cultured in an incubator under conditions of RPMI1640 (Gibco, cat. No. 11875-119), 20% fetal bovine serum (Gibco, 10099-141), human 10 ng/mL GM-CSF granulocyte macrophage colony-stimulating factors (R&D, cat. No. 215-GM-010), 37° C. and 5% CO2; and Kasumi-1 human acute myeloblastic leukemia cells (cat. No. CBP60524) were cultured in an incubator under conditions of RPMI1640 (Gibco, cat. No. 11875-119), 20% fetal bovine serum (Gibco, 10099-141), 37° C. and 5% CO2; NCI-H1703 human non-small cell lung squamous carcinoma cells (cat. No. CBP60115) were cultured in an incubator under conditions of RPMI1640 (Gibco, cat. No. 11875-119), 10% fetal bovine serum (Gibco, 10099-141), 37° C. and 5% CO2; and MV-4-11 human acute monocytic leukemia cells (cat. No. CBP60522) were cultured in an incubator under conditions of IMDM (Invitrogen, cat. No. 12440053), 20% fetal bovine serum (Gibco, 10099-141), 37° C. and 5% CO2. Since ATP is an index for viable cell metabolism, CTG (Promega, #G7573) reagent is a homogeneous detection method for detecting the number of viable cells in the culture by quantifying ATP. Therefore, compound-mediated inhibition for cell proliferation/survival was evaluated by quantifying ATP content in cells, and the specific experimental process was as follows.
II) NCI-H1703 Human Non-Small Cell Lung Squamous Carcinoma Cell • 1.

The subject of test [3] is M-07e human cytomegalic leukemia cells. Nature of the test: KIT-related cell proliferation experiment (Cell Titer Glo). To be noted: 72 h, M-07e cells, SCF, 3 days, CTG, read-out: Cytological experiment KIT IC50. As to the method:
as §1
I) M-07e Human Cytomegalic Leukemia Cell: • 1. The cells were plated into a tissue-culture-medium-treated 96-well plate (Costar #3904) with 3500 cells/well/80 μL fresh culture medium, and cultured for 24 hrs; • 2. the next day, 10 μL of culture medium containing testing compound with 10-fold of final concentration was added to each well; • 3.

Where [4] appears, read: absolute half maximal inhibitory concentration, read-out: Cytological experiment CSF-1R Absolute IC50.
Where [5] appears, read: read-out: Cytological experiment CSF1R IC50.

The results in this text go back to US11180495B2 (Abbisko Therapeutics Co., Ltd., priority 2017, dated 2021).

Each structure is given as a SMILES string. Where two headings read alike, the source gives them in different places.

A word on the IC50: it is the concentration needed to halve the response being measured. Take `Cc1nc(-c2cnc(NC(C)C)[nH]c2=O)ccc1Cc1c[nH]c2ncc(F)cc12` [Example 5, 5-(5-((5-fluoro-1H-pyrrolo[2,3-b]pyridin-3-yl)methyl)-6-methylpyridin-2-yl)-2-(isopropylamino)pyrimidin-4(3H)-one]: the half-inhibitory concentration (IC50) came out at 47.9 nM in test [1] (setting [4]), 77.9 nM in test [1] (setting [5]), 1820 nM in test [2] and 1120 nM in test [3].

Turning to `Cc1nc(-c2cnc3n(c2=O)CCCN3C)ccc1Cc1c[nH]c2ncc(-c3cnn(C)c3)cc12` [Example 18, 9-methyl-3-(6-methyl-5-((5-(1-methyl-1H-pyrazol-4-yl)-1H-pyrrolo[2,3-b]pyridin-3-yl)methyl)pyridin-2-yl)-6,7,8,9-tetrahydro-4H-pyrimido[1,2-a]pyrimidin-4-one], the IC50 in test [1] (setting [4]) was 4.9 nM; in test [1] (setting [5]) it was 5 nM; in test [2], 447 nM; in test [3], 232 nM.

Consider `Cc1nc(-c2cnc3n(c2=O)CCC(C)N3C)ccc1Cc1c[nH]c2ncc(Cl)cc12` (stereo not drawn) [Example 15, 3-(5-((5-chloro-1H-pyrrolo[2,3-b]pyridin-3-yl)methyl)-6-methylpyridin-2-yl)-8,9-dimethyl-6,7,8,9-tetrahydro-4H-pyrimido[1,2-a]pyrimidin-4-one], for which the half-inhibitory concentration (IC50) in test [1] (setting [4]) was 83.3 nM; in test [1] (setting [5]), 91.3 nM; in test [2], above 2000 nM; in test [3], 788 nM.

For `Cc1nc(-c2cnc3n(c2=O)CCCN3C)ccc1Cc1c[nH]c2ncc(Cl)cc12` [Example 13, 3-(5-((5-chloro-1H-pyrrolo[2,3-b]pyridin-3-yl)methyl)-6-methylpyridin-2-yl)-9-methyl-6,7,8,9-tetrahydro-4H-pyrimido[1,2-a]pyrimidin-4-one], the concentration for half-maximal inhibition (IC50) is 38.6 nM in test [1] (setting [4]), 46.8 nM in test [1] (setting [5]), above 6000 nM in test [2] and 1200 nM in test [3].

For `Cc1nc(-c2cnc3n(c2=O)CCCN3C)ccc1Cc1c[nH]c2ncc(F)cc12` [Example 20, 3-(5-((5-fluoro-1H-pyrrolo[2,3-b]pyridin-3-yl)methyl)-6-methylpyridin-2-yl)-9-methyl-6,7,8,9-tetrahydro-4H-pyrimido[1,2-a]pyrimidin-4-one], the IC50 in test [1] (setting [4]) is 106 nM; in test [1] (setting [5]), 92.2 nM; in test [2], above 18000 nM; in test [3], 3190 nM.

Consider `Cc1nc(-c2cnc3n(c2=O)CCCN3C)ccc1Cc1c[nH]c2ncc(O)cc12` [Example 23], for which the IC50 in test [1] (setting [4]) was 131 nM; in test [1] (setting [5]) it was 140 nM; in test [2], above 6000 nM; in test [3], 1840 nM.

In the case of `CCN1CCCn2c1ncc(-c1ccc(Cc3c[nH]c4ncc(Cl)cc34)c(C)n1)c2=O` [Example 16, 3-(5-((5-chloro-1H-pyrrolo[2,3-b]pyridin-3-yl)methyl)-6-methylpyridin-2-yl)-9-ethyl-6,7,8,9-tetrahydro-4H-pyrimido[1,2-a]pyrimidin-4-one], the IC50 in test [1] (setting [4]) stood at 71.8 nM; in test [1] (setting [5]) it was 68.6 nM; in test [2], 1030 nM; in test [3], 271 nM.

Consider `CCN1CCCn2c1ncc(-c1ccc(Cc3c[nH]c4ncc(-c5cnn(C)c5)cc34)c(C)n1)c2=O` [Example 17], for which the IC50 is 6.3 nM in test [1] (setting [5]); 5 nM in test [1] (Lymphocyte, absolute half maximal inhibitory concentration, read-out: Cytological experiment CSF-1R Absolute IC50); 57.2 nM in test [2]; 38.5 nM in test [3].

With `Cc1nc(-c2cnc3n(c2=O)CCCN3C)ccc1Cc1c[nH]c2ncccc12` [Example 14, 3-(5-((1H-pyrrolo[2,3-b]pyridin-3-yl)methyl)-6-methylpyridin-2-yl)-9-methyl-6,7,8,9-tetrahydro-4H-pyrimido[1,2-a]pyrimidin-4-one], the IC50 in test [1] (setting [4]) is 105 nM; in test [1] (setting [5]), 96.7 nM; in test [2], above 18000 nM; in test [3] it was 10600 nM.

`COc1cnc2[nH]cc(Cc3ccc(-c4cnc5n(c4=O)CCCN5C)nc3C)c2c1` [Example 22, 3-(5-((5-methoxy-1H-pyrrolo[2,3-b]pyridin-3-yl)methyl)-6-methylpyridin-2-yl)-9-methyl-6,7,8,9-tetrahydro-4H-pyrimido[1,2-a]pyrimidin-4-one]: the IC50 in test [1] (setting [4]) was 39.1 nM; in test [1] (setting [5]) it was 48 nM; in test [2], above 2000 nM; in test [3], 1520 nM.

Regarding `Cc1nc(-c2cnc(NC(C)C)n(C)c2=O)ccc1Cc1c[nH]c2ncccc12` [Example 7, 5-(5-((1H-pyrrolo[2,3-b]pyridin-3-yl)methyl)-6-methylpyridin-2-yl)-2-(isopropylamino)-3-methylpyrimidin-4(3H)-one], the IC50 in test [1] (setting [4]) was 33.7 nM; in test [1] (setting [5]), 39.7 nM; in test [2] it was above 6000 nM; in test [3], 834 nM.

As for `Cc1cnc2[nH]cc(Cc3ccc(-c4cnc5n(c4=O)CCCN5C)nc3C)c2c1` [Example 21, 9-methyl-3-(6-methyl-5-((5-methyl-1H-pyrrolo[2,3-b]pyridin-3-yl)methyl)pyridin-2-yl)-6,7,8,9-tetrahydro-4H-pyrimido[1,2-a]pyrimidin-4-one], the IC50 in test [1] (setting [4]) is 45.6 nM; in test [1] (setting [5]), 54 nM; in test [2], above 18000 nM; in test [3], 1510 nM.
